{"source": "patent US11377442B2", "about": "“Small molecule agonists and antagonists of NR2F6 activity” (ZANDER THERAPEUTICS, INC., priority 2016, dated 2022)", "type_in_all_cases": "cell-based", "key": {"Renilla [1]": {"system": "Renilla", "test": "Renilla signal, LBD, cmpd/DMSO (NR2F6 LBD transfected cells)"}, "NR2F6": {"biological_target": "T1, NR2F6 (Homo sapiens, UniProt P10588)", "T1 construct": "expressed in transfected cells; also transient transfection", "T1 sequence (P10588 1-404)": "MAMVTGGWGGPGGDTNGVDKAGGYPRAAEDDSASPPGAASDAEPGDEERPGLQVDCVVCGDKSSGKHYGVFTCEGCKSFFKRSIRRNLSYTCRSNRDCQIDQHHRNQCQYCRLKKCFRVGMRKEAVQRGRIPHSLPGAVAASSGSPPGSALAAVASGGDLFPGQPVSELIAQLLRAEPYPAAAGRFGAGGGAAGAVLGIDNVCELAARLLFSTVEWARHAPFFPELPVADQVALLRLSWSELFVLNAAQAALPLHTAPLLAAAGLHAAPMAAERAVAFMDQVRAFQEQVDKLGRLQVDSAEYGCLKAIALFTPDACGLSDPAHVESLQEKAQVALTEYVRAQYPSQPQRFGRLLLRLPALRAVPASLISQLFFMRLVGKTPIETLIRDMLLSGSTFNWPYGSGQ", "test": "NR2F6 agonist screening, Firefly signal cmpd/DMSO"}, "HEK293 pGL4": {"system": "HEK293 pGL4", "test": "Firefly_pGL signal, cmpd/DMSO (pGL4 control cells)", "conditions": "Homo sapiens"}, "NR2F6 LBD": {"biological_target": "T2, NR2F6 LBD (Homo sapiens, UniProt P10588)", "T2 construct": "expressed in transfected cells", "T2 sequence (P10588 165-393 limits assumed)": "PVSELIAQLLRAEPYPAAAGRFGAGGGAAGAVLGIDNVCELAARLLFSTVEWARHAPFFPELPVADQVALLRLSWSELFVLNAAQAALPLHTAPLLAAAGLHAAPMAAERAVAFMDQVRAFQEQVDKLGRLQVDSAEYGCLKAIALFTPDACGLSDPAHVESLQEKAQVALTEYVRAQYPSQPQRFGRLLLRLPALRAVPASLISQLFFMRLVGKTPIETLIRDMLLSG", "test": "NR2F6 LBD transient transfection", "method_in_brief": "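LBD-transfected cells treated at 40, 10, 2 and 0.5 μM (4 replicates); cytotoxicity measured in parallel, normalized to DMSO (0%) and zero signal (100%). Higher concentrations excluded where signal loss reflected toxicity.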"}, "Renilla [2]": {"system": "Renilla", "test": "Renilla signal in NR2F6 agonist screening, cmpd/DMSO", "conditions": "Renilla"}, "[3]": {"conditions": "read-out: Renilla F4, cmpd/DMSO (mean)"}, "[4]": {"conditions": "F4, read-out: Renilla, F4, cmpd/DMSO (mean)"}, "[5]": {"conditions": "F4, 1% FBS, read-out: Renilla, F4, 1% FBS, cmpd/DMSO (mean)"}, "[6]": {"conditions": "F4, 10% FBS, read-out: Renilla, F4, 10% FBS, cmpd/DMSO (mean)"}}, "note": "Where “and” joins values, the source holds several entries; their conditions need not be identical. Equal entries are not always repeated. Where two headings read alike, the source gives them in different places."}
{"molecule": "O=S1(=O)C[C@H](N2CCCC2)[C@@H](S(=O)(=O)c2cccs2)C1", "note": "[Compound D104]", "values": [{"measurement": "Renilla LBD, cmpd/DMSO (mean)", "setting": "Renilla [1]; 0.5 uM", "value": 1.1}, {"measurement": "Renilla LBD, cmpd/DMSO (mean)", "setting": "Renilla [1]; 2 uM", "value": 1.1}, {"measurement": "Renilla LBD, cmpd/DMSO (mean)", "setting": "Renilla [1]; 10 uM", "value": 0.6}, {"measurement": "Renilla LBD, cmpd/DMSO (mean)", "setting": "Renilla [1]; 40 uM", "value": 0.2}, {"measurement": "Firefly F4, cmpd/DMSO (mean)", "setting": "NR2F6; 0.5 uM", "value": 2.1}, {"measurement": "Firefly F4, cmpd/DMSO (mean)", "setting": "NR2F6; 0.5 uM, F4", "value": 1.7}, {"measurement": "Firefly F4, cmpd/DMSO (mean)", "setting": "NR2F6; 2 uM", "value": 4.5}, {"measurement": "Firefly F4, cmpd/DMSO (mean)", "setting": "NR2F6; 2 uM, F4", "value": 2.4}, {"measurement": "Firefly F4, cmpd/DMSO (mean)", "setting": "NR2F6; 10 uM", "value": 4.3}, {"measurement": "Firefly F4, cmpd/DMSO (mean)", "setting": "NR2F6; 10 uM, F4", "value": 6.2}, {"measurement": "Firefly F4, cmpd/DMSO (mean)", "setting": "NR2F6; 40 uM", "value": 1.0}, {"measurement": "Firefly F4, cmpd/DMSO (mean)", "setting": "NR2F6; 40 uM, F4", "value": 0.8}, {"measurement": "F4, Firefly/Renilla for S/B(F4) > 3", "setting": "NR2F6; 1% FBS, 10 uM", "value": "3.5 and 2.6"}, {"measurement": "F4, Firefly/Renilla for S/B(F4) > 3", "setting": "NR2F6; 10% FBS, 10 uM", "value": "4.5 and 4.9"}, {"measurement": "Firefly, F4/pGL4 for S/B(F4) > 3", "setting": "NR2F6; 10% FBS, 10 uM", "value": "4.2 and 4.3"}, {"measurement": "Firefly, F4, 1% FBS, cmpd/DMSO (mean)", "setting": "NR2F6; F4, 1% FBS, 0.5 uM", "value": 0.9}, {"measurement": "Firefly, F4, 1% FBS, cmpd/DMSO (mean)", "setting": "NR2F6; F4, 1% FBS, 2 uM", "value": "1.9 and 1.6"}, {"measurement": "Firefly, F4, 1% FBS, cmpd/DMSO (mean)", "setting": "NR2F6; F4, 1% FBS, 10 uM", "value": "8.5 and 5.1"}, {"measurement": "Firefly, F4, 1% FBS, cmpd/DMSO (mean)", "setting": "NR2F6; F4, 1% FBS, 40 uM", "value": "0.7 and 0.4"}, {"measurement": "Firefly, F4, 10% FBS, cmpd/DMSO (mean)", "setting": "NR2F6; F4, 10% FBS, 0.5 uM", "value": "0.8 and 1.3"}, {"measurement": "Firefly, F4, 10% FBS, cmpd/DMSO (mean)", "setting": "NR2F6; F4, 10% FBS, 2 uM", "value": "1.4 and 1.5"}, {"measurement": "Firefly, F4, 10% FBS, cmpd/DMSO (mean)", "setting": "NR2F6; F4, 10% FBS, 10 uM", "value": "11 and 13"}, {"measurement": "Firefly, F4, 10% FBS, cmpd/DMSO (mean)", "setting": "NR2F6; F4, 10% FBS, 40 uM", "value": "1.4 and 1.0"}, {"measurement": "Activity, cmpd/DMSO", "setting": "NR2F6; Table 31", "value": 7.1}, {"measurement": "fold induction at 0.5 µM", "setting": "HEK293 pGL4; HEK293, 0.5 uM, pGL4, read-out: Firefly pGL4, cmpd/DMSO (mean)", "value": 1.3}, {"measurement": "fold induction at 0.5 µM", "setting": "HEK293 pGL4; HEK293, 0.5 uM, read-out: Firefly pGL4, cmpd/DMSO (mean)", "value": 1.2}, {"measurement": "fold induction at 2 µM", "setting": "HEK293 pGL4; HEK293, 2 uM, pGL4, read-out: Firefly pGL4, cmpd/DMSO (mean)", "value": 1.4}, {"measurement": "fold induction at 2 µM", "setting": "HEK293 pGL4; HEK293, 2 uM, read-out: Firefly pGL4, cmpd/DMSO (mean)", "value": 1.8}, {"measurement": "fold induction at 10 µM", "setting": "HEK293 pGL4; HEK293, 10 uM, pGL4, read-out: Firefly pGL4, cmpd/DMSO (mean)", "value": 4}, {"measurement": "fold induction at 10 µM", "setting": "HEK293 pGL4; HEK293, 10 uM, read-out: Firefly pGL4, cmpd/DMSO (mean)", "value": 2.4}, {"measurement": "fold induction at 40 µM", "setting": "HEK293 pGL4; HEK293, 40 uM, pGL4, read-out: Firefly pGL4, cmpd/DMSO (mean)", "value": 0.7}, {"measurement": "fold induction at 40 µM", "setting": "HEK293 pGL4; HEK293, 40 uM, read-out: Firefly pGL4, cmpd/DMSO (mean)", "value": 0.7}, {"measurement": "fold induction at 0.5 µM", "setting": "HEK293 pGL4; HEK293, pGL4, 1% FBS, 0.5 uM, read-out: Firefly, pGL4, 1% FBS, cmpd/DMSO (mean)", "value": 1}, {"measurement": "fold induction at 2 µM", "setting": "HEK293 pGL4; HEK293, pGL4, 1% FBS, 2 uM, read-out: Firefly, pGL4, 1% FBS, cmpd/DMSO (mean)", "value": 1}, {"measurement": "fold induction at 10 µM", "setting": "HEK293 pGL4; HEK293, pGL4, 1% FBS, 10 uM, read-out: Firefly, pGL4, 1% FBS, cmpd/DMSO (mean)", "value": 1.5}, {"measurement": "fold induction at 40 µM", "setting": "HEK293 pGL4; HEK293, pGL4, 1% FBS, 40 uM, read-out: Firefly, pGL4, 1% FBS, cmpd/DMSO (mean)", "value": 0.6}, {"measurement": "fold induction at 0.5 µM", "setting": "HEK293 pGL4; HEK293, pGL4, 10% FBS, 0.5 uM, read-out: Firefly, pGL4, 10% FBS, cmpd/DMSO (mean)", "value": 1.1}, {"measurement": "fold induction at 2 µM", "setting": "HEK293 pGL4; HEK293, pGL4, 10% FBS, 2 uM, read-out: Firefly, pGL4, 10% FBS, cmpd/DMSO (mean)", "value": 1.7}, {"measurement": "fold induction at 10 µM", "setting": "HEK293 pGL4; HEK293, pGL4, 10% FBS, 10 uM, read-out: Firefly, pGL4, 10% FBS, cmpd/DMSO (mean)", "value": 2.7}, {"measurement": "fold induction at 40 µM", "setting": "HEK293 pGL4; HEK293, pGL4, 10% FBS, 40 uM, read-out: Firefly, pGL4, 10% FBS, cmpd/DMSO (mean)", "value": 0.5}, {"measurement": "Firefly LBD, cmpd/DMSO (mean)", "setting": "NR2F6 LBD; 0.5 uM", "value": 1.3}, {"measurement": "Firefly LBD, cmpd/DMSO (mean)", "setting": "NR2F6 LBD; 0.5 uM, LBD", "value": 1.3}, {"measurement": "Firefly LBD, cmpd/DMSO (mean)", "setting": "NR2F6 LBD; 2 uM", "value": 2.9}, {"measurement": "Firefly LBD, cmpd/DMSO (mean)", "setting": "NR2F6 LBD; 2 uM, LBD", "value": 1.7}, {"measurement": "Firefly LBD, cmpd/DMSO (mean)", "setting": "NR2F6 LBD; 10 uM", "value": 1.2}, {"measurement": "Firefly LBD, cmpd/DMSO (mean)", "setting": "NR2F6 LBD; 10 uM, LBD", "value": 3.3}, {"measurement": "Firefly LBD, cmpd/DMSO (mean)", "setting": "NR2F6 LBD; 40 uM", "value": 0.2}, {"measurement": "Firefly LBD, cmpd/DMSO (mean)", "setting": "NR2F6 LBD; 40 uM, LBD", "value": 0.6}, {"measurement": "fold induction at 0.5 µM", "setting": "Renilla [2]; [3]", "value": 1.2}, {"measurement": "fold induction at 2 µM", "setting": "Renilla [2]; [3]", "value": 2}, {"measurement": "fold induction at 10 µM", "setting": "Renilla [2]; [3]", "value": 1.7}, {"measurement": "fold induction at 40 µM", "setting": "Renilla [2]; [3]", "value": 0.3}, {"measurement": "fold induction at 0.5 µM", "setting": "Renilla [2]; [4]", "value": 1.1}, {"measurement": "fold induction at 2 µM", "setting": "Renilla [2]; [4]", "value": 1.2}, {"measurement": "fold induction at 10 µM", "setting": "Renilla [2]; [4]", "value": 1.6}, {"measurement": "fold induction at 40 µM", "setting": "Renilla [2]; [4]", "value": 0.3}, {"measurement": "fold induction at 0.5 µM", "setting": "Renilla [2]; [5]", "value": 1.1}, {"measurement": "fold induction at 2 µM", "setting": "Renilla [2]; [5]", "value": 1.4}, {"measurement": "fold induction at 10 µM", "setting": "Renilla [2]; [5]", "value": 2.4}, {"measurement": "fold induction at 40 µM", "setting": "Renilla [2]; [5]", "value": 1}, {"measurement": "fold induction at 0.5 µM", "setting": "Renilla [2]; [6]", "value": 1}, {"measurement": "fold induction at 2 µM", "setting": "Renilla [2]; [6]", "value": 1.3}, {"measurement": "fold induction at 10 µM", "setting": "Renilla [2]; [6]", "value": 2.5}, {"measurement": "fold induction at 40 µM", "setting": "Renilla [2]; [6]", "value": 2.2}]}
